Source: patent US11203574B2 (BioCryst Pharmaceuticals, Inc., priority 2014, dated 2021)

Biological target: human plasma kallikrein (Homo sapiens (Human), UniProt P03952)
Test: Plasma kallikrein activity assay (chromogenic substrate S2302)
Format: biochemical
Settings: 2 nM kallikrein, 80 μM S2302, 30° C., pH 7.8; Ki by Cheng-Prusoff equation; values given as ranges; read-out: Ki

human plasma kallikrein, sequence (P03952 whole entry, looked up): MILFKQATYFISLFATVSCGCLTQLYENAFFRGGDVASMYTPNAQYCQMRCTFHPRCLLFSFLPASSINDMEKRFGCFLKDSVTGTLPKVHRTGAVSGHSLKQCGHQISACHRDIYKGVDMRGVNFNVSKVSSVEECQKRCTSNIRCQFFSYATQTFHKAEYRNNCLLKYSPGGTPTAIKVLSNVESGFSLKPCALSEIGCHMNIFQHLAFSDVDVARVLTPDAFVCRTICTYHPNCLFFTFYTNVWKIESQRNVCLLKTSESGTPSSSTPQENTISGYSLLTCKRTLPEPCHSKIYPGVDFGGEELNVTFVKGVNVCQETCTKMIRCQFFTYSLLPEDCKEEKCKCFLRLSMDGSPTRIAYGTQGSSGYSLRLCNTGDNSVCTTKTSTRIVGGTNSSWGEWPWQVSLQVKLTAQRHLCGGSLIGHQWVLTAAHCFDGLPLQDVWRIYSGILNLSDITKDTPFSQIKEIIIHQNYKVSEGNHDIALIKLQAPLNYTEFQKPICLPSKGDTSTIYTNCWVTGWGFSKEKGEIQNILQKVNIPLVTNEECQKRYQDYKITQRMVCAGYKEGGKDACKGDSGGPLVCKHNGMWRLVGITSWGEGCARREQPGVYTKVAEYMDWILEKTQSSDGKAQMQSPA
human plasma kallikrein, sequence (P03952 whole entry partner, looked up): as the sequence (P03952 whole entry, looked up) above

`NCc1cccc(-n2nc(C(F)(F)F)cc2C(=O)Nc2cc(C(CCC3CC3)N3CCCCC3=O)ccc2F)c1` (single isomer, unassigned; (+)) [261k, (+)-1-(3-(aminomethyl)phenyl)-N-(5-(3-cyclopropyl-1-(2-oxopiperidin-1-yl)propyl)-2-fluorophenyl)-3-(trifluoromethyl)-1H-pyrazole-5-carboxamide] and `NCc1cccc(-n2nc(C(F)(F)F)cc2C(=O)Nc2cc(C(c3ccccc3)N(CC3CC3)CC3CC3)ccc2F)c1` (single isomer, unassigned; (-)) [206d, (−)-1-(3-(aminomethyl)phenyl)-N-(5-((bis(cyclopropylmethyl)amino)(phenyl)methyl)-2-fluorophenyl)-3-(trifluoromethyl)-1H pyrazole-5-carboxamide] fall in the same range of Ki: 0.0001 to 0.05 µM for the first, 0.0001 to 0.05 µM for the second.

First: Cc1cc(C(N)(CCC2CC2)c2ccc(F)c(NC(=O)c3cc(C(F)(F)F)nn3-c3cccc(CN)c3)c2)ccn1 (single isomer, unassigned; (+)) [266j, (+)-N-(5-(1-amino-3-cyclopropyl-1-(2-methylpyridin-4-yl)propyl)-2-fluorophenyl)-1-(3-(aminomethyl)phenyl)-3-(trifluoromethyl)-1H-pyrazole-5-carboxamide]
Second: NCc1cccc(-n2nc(C(F)(F)F)cc2C(=O)Nc2cc(C(N)(CCC3CC3)c3ccncc3)ccc2F)c1 (single isomer, unassigned; (-)) [217d, (−)-N-(5-(1-amino-3-cyclopropyl-1-(pyridin-4-yl)propyl)-2-fluorophenyl)-1-(3-(aminomethyl)phenyl)-3-(trifluoromethyl)-1H-pyrazole-5-carboxamide]
The Ki of the first is lower: 0.0001 to 0.05 µM for the first, 0.05 to 0.1 µM for the second.

First: Nc1nccc2ccc(-n3nc(C(=O)Nc4cc(C(N)(CCC5CC5)c5ccncc5)ccc4F)cc3C(F)(F)F)cc12 (single isomer, unassigned; (+)) [268g, (+)-N-(5-(1-amino-3-cyclopropyl-1-(pyridin-4-yl)propyl)-2-fluorophenyl)-1-(1-aminoisoquinolin-7-yl)-5-(trifluoromethyl)-1H-pyrazole-3-carboxamide]
Second: CS(=O)(=O)NC(CCC1CC1)(c1ccncc1)c1ccc(F)c(NC(=O)c2cc(C(F)(F)F)nn2-c2ccc3ccnc(N)c3c2)c1 (single isomer, unassigned; (-)) [262f, (−)-1-(1-aminoisoquinolin-7-yl)-N-(5-(3-cyclopropyl-1-(methylsulfonamido)-1-(pyridin-4-yl)propyl)-2-fluorophenyl)-3-(trifluoromethyl)-1H-pyrazole-5-carboxamide]
The Ki of the first is higher: 0.05 to 0.1 µM for the first, 0.0001 to 0.05 µM for the second.

`NCc1cccc(-n2nc(C(F)(F)F)cc2C(=O)Nc2cccc(C(OCC3CC3)c3ccccn3)c2)c1` (single isomer, unassigned; (-)) [43g, (−)-1-(3-(aminomethyl)phenyl)-N-(3-((cyclopropylmethoxy)(pyridin-2-yl)methyl)-phenyl)-3-(trifluoromethyl)-1H-pyrazole-5-carboxamide] and `NCc1cccc(-n2nc(C(F)(F)F)cc2C(=O)Nc2cccc(C(OCC3CC3)c3cccnc3)c2)c1` (single isomer, unassigned; (-)) [44e, (−)-1-(3-(aminomethyl)phenyl)-N-(3-((cyclopropylmethoxy)(pyridin-3-yl)methyl)phenyl)-3-(trifluoromethyl)-1H-pyrazole-5-carboxamide] fall in the same range of Ki: 0.0001 to 0.05 µM for the first, 0.0001 to 0.05 µM for the second.

`NCc1cccc(-n2nc(C(F)(F)F)cc2C(=O)Nc2cccc(C(O)(CCC3CC3)c3ccccc3)c2)c1` (single isomer, unassigned; (-)) [46i, (−)-1-(3-(aminomethyl)phenyl)-N-(3-(3-cyclopropyl-1-hydroxy-1-phenylpropyl)phenyl)-3-(trifluoromethyl)-1H-pyrazole-5-carboxamide] and `NCc1cccc(-n2nc(C(F)(F)F)cc2C(=O)Nc2cccc(C(O)(CCC3CC3)c3cccnc3)c2)c1` (single isomer, unassigned; (-)) [47g, (−)-1-(3-(aminomethyl)phenyl)-N-(3-(3-cyclopropyl-1-hydroxy-1-(pyridin-3-yl)propyl)phenyl)-3-(trifluoromethyl)-1H-pyrazole-5-carboxamide] fall in the same range of Ki: 0.0001 to 0.05 µM for the first, 0.0001 to 0.05 µM for the second.

`NCc1cccc(-n2nc(C(F)(F)F)cc2C(=O)Nc2cccc(C(OCC3CC3)c3cccc(N)c3)c2)c1` (single isomer, unassigned; (-)) [64a, (−)-1-(3-(aminomethyl)phenyl)-N-(3-((3-aminophenyl)(cyclopropyl-methoxy)methyl)phenyl)-3-(trifluoromethyl)-1H-pyrazole-5-carboxamide] and `NCc1cccc(-n2nc(C(F)(F)F)cc2C(=O)Nc2cccc(C(OCC3CC3)c3ccccc3)c2)c1` (single isomer, unassigned; (-)) [165e, (−)-1-(3-(aminomethyl)phenyl)-N-(3-((cyclopropylmethoxy)(phenyl)methyl)phenyl)-3-(trifluoromethyl)-1H-pyrazole-5-carboxamide] fall in the same range of Ki: 0.0001 to 0.05 µM for the first, 0.0001 to 0.05 µM for the second.

`NCc1cccc(-n2nc(C(F)(F)F)cc2C(=O)Nc2cc(C(N)(CCC3CC3)c3cccc(C(N)=O)c3)ccc2F)c1` (single isomer, unassigned; (-)) [225a, (−)-N-(5-(1-amino-1-(3-carbamoylphenyl)-3-cyclopropylpropyl)-2-fluorophenyl)-1-(3-(aminomethyl)phenyl)-3-(trifluoromethyl)-1H-pyrazole-5-carboxamide] and `CC(=O)NC(CCC1CC1)(c1cccnc1)c1ccc(F)c(NC(=O)c2cc(C(F)(F)F)nn2-c2cccc(CN)c2)c1` (single isomer, unassigned; (-)) [244h, (−)-N-(5-(1-acetamido-3-cyclopropyl-1-(pyridin-3-yl)propyl)-2-fluorophenyl)-1-(3-(aminomethyl)phenyl)-3-(trifluoromethyl)-1H-pyrazole-5-carboxamide] fall in the same range of Ki: 0.0001 to 0.05 µM for the first, 0.0001 to 0.05 µM for the second.

First: N=C(N)c1cccc(-n2nc(C(F)(F)F)cc2C(=O)Nc2cc(C(NCC3CC3)c3ccccc3)ccc2F)c1 (single isomer, unassigned; (-)) [227d, (−)-1-(3-carbamimidoylphenyl)-N-(5-((cyclopropylmethylamino)(phenyl)methyl)-2-fluorophenyl)-3-(trifluoromethyl)-1H-pyrazole-5-carboxamide]
Second: CCNCc1cccc(-n2nc(C(F)(F)F)cc2C(=O)Nc2cc(C(NCC3CC3)c3ccccc3)ccc2F)c1 (single isomer, unassigned; (-)) [270a, (−)-N-(5-((cyclopropylmethylamino)(phenyl)methyl)-2-fluorophenyl)-1-(3-((ethylamino)methyl)phenyl)-3-(trifluoromethyl)-1H-pyrazole-5-carboxamide]
The Ki of the first is lower: 0.0001 to 0.05 µM for the first, 0.05 to 0.1 µM for the second. The first binds more tightly here.

`N#Cc1cc(C(=O)Nc2cc(C(NCC3CC3)c3ccccc3)ccc2F)n(-c2cccc(CN)c2)n1` (single isomer, unassigned; (-)) [240b, (−)-1-(3-(aminomethyl)phenyl)-3-cyano-N-(5-((cyclopropylmethylamino)(phenyl)methyl)-2-fluorophenyl)-1H-pyrazole-5-carboxamide] and `NCc1cccc(-n2nc(C(F)(F)F)cc2C(=O)Nc2cccc(C(OCC3CC3)c3ccccc3)c2)c1` (centres unmarked) [18k, 1-(3-(aminomethyl)phenyl)-N-(3-((cyclopropylmethoxy)(phenyl)methyl)phenyl)-3-(trifluoromethyl)-1H-pyrazole-5-carboxamide] fall in the same range of Ki: 0.0001 to 0.05 µM for the first, 0.0001 to 0.05 µM for the second.

`CC(C)(C)C(=O)NC(CCC1CC1)(c1cccnc1)c1ccc(F)c(NC(=O)c2cc(C(F)(F)F)nn2-c2cccc(CN)c2)c1` (single isomer, unassigned; (-)) [244g, (−)-1-(3-(aminomethyl)phenyl)-N-(5-(3-cyclopropyl-1-pivalamido-1-(pyridin-3-yl)propyl)-2-fluorophenyl)-3-(trifluoromethyl)-1H-pyrazole-5-carboxamide] and `CC(C)C(=O)NC(CCC1CC1)(c1cccnc1)c1ccc(F)c(NC(=O)c2cc(C(F)(F)F)nn2-c2cccc(CN)c2)c1` (single isomer, unassigned; (-)) [244j, (−)-1-(3-(aminomethyl)phenyl)-N-(5-(3-cyclopropyl-1-isobutyramido-1-(pyridin-3-yl)propyl)-2-fluorophenyl)-3-(trifluoromethyl)-1H-pyrazole-5-carboxamide] fall in the same range of Ki: 0.0001 to 0.05 µM for the first, 0.0001 to 0.05 µM for the second.

`CCC(=O)NC(CCC1CC1)(c1cccnc1)c1ccc(F)c(NC(=O)c2cc(C(F)(F)F)nn2-c2cccc(CN)c2)c1` (single isomer, unassigned; (-)) [244i, (−)-1-(3-(aminomethyl)phenyl)-N-(5-(3-cyclopropyl-1-propionamido-1-(pyridin-3-yl)propyl)-2-fluorophenyl)-3-(trifluoromethyl)-1H-pyrazole-5-carboxamide] and `CC(C)CC(=O)NC(CCC1CC1)(c1cccnc1)c1ccc(F)c(NC(=O)c2cc(C(F)(F)F)nn2-c2cccc(CN)c2)c1` (single isomer, unassigned; (-)) [244k, (−)-1-(3-(aminomethyl)phenyl)-N-(5-(3-cyclopropyl-1-(3-methylbutanamido)-1-(pyridin-3-yl)propyl)-2-fluorophenyl)-3-(trifluoromethyl)-1H-pyrazole-5-carboxamide] fall in the same range of Ki: 0.0001 to 0.05 µM for the first, 0.0001 to 0.05 µM for the second.

First: CS(=O)(=O)NC(CCC1CC1)(c1ccncc1)c1ccc(F)c(NC(=O)c2cc(C(F)(F)F)nn2-c2cccc(CN)c2)c1 (single isomer, unassigned; (-)) [245c, (−)-1-(3-(aminomethyl)phenyl)-N-(5-(3-cyclopropyl-1-(methylsulfonamido)-1-(pyridin-4-yl)propyl)-2-fluorophenyl)-3-(trifluoromethyl)-1H-pyrazole-5-carboxamide]
Second: CCCOC(c1ccccc1)c1cccc(NC(=O)c2cc(C(F)(F)F)nn2-c2cccc(CN)c2)c1 (centres unmarked) [18h, 1-(3-(aminomethyl)phenyl)-N-(3-(phenyl(propoxy)methyl)phenyl)-3-(trifluoromethyl)-1H-pyrazole-5-carboxamide]
The Ki of the first is lower: 0.0001 to 0.05 µM for the first, 0.05 to 0.1 µM for the second.

`CCOC(c1ccccc1)c1cccc(NC(=O)c2cc(C(F)(F)F)nn2-c2cccc(CN)c2)c1` (centres unmarked) [18g, 1-(3-(aminomethyl)phenyl)-N-(3-(ethoxy(phenyl)methyl)phenyl)-3-(trifluoromethyl)-1H-pyrazole-5-carboxamide] and `CC(C)COC(c1ccccc1)c1cccc(NC(=O)c2cc(C(F)(F)F)nn2-c2cccc(CN)c2)c1` (centres unmarked) [18i, 1-(3-(aminomethyl)phenyl)-N-(3-(isobutoxy(phenyl)methyl)phenyl)-3-(trifluoromethyl)-1H-pyrazole-5-carboxamide] fall in the same range of Ki: 0.05 to 0.1 µM for the first, 0.05 to 0.1 µM for the second.
